Each block holds one compound with its values, some of them ahead of it.
Columns and labels:
Test in all cases: whole-cell patch clamp, HEK-293T
Assay type in all cases: cell-based
[1] = molecular target: T1, TASK-3/TASK-1 (hTASK-3/hTASK-1) (Homo sapiens, UniProt O14649+Q9NPC2); conditions: read-out: % inhibition at 0.5 μM
TASK-3 (hTASK-3) [2] = molecular target: T2, TASK-3 (hTASK-3) (Homo sapiens, UniProt Q9NPC2); conditions: read-out: % inhibition at 0.5 μM
TASK-3 (hTASK-3) [3] = molecular target: T2, TASK-3 (hTASK-3)
TASK-3 (hTASK-3) [4] = molecular target: T2, TASK-3 (hTASK-3); conditions: dose-response
[5] = molecular target: T1, TASK-3/TASK-1 (hTASK-3/hTASK-1)

T2 sequence (Q9NPC2 whole entry): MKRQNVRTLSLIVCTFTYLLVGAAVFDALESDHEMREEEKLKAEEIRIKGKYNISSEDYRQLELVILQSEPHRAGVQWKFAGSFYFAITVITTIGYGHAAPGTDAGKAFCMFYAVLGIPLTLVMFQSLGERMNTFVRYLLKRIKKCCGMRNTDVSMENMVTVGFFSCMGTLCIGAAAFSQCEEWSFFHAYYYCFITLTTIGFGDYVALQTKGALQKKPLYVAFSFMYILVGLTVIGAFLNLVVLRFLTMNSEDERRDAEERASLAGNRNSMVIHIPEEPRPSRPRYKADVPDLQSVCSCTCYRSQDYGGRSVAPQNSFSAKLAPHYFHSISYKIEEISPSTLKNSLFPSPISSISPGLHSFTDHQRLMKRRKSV
T1 sequence (Q9NPC2 whole entry): as above
T1 sequence (O14649 whole entry): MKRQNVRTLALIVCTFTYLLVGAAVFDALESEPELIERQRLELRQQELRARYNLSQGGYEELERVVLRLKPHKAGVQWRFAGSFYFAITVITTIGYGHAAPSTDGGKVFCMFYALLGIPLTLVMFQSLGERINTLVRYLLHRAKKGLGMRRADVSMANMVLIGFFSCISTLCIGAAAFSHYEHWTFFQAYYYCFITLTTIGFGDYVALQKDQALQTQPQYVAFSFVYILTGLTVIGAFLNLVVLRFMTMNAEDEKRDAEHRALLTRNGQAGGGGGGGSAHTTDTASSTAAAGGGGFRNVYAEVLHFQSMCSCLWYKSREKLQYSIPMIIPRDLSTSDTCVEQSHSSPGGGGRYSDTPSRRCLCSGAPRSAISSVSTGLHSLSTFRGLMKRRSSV

inhibition at 0.5 µM [1]: 90 ± 2% | inhibition at 0.5 µM (TASK-3 (hTASK-3) [2]): 86 ± 3%
Compound: CCCC(=O)C1CCN(c2ncnc3c2CN(C(=O)c2ccc(-c4ccccc4)cc2)CC3)CC1 [PK-THPP]

EC50 (TASK-3 (hTASK-3) [3]): 500 ± 100 nM
Compound: Cc1ccc(SCc2cc(O)nc(N=C(N)Nc3cccc4ccccc34)n2)cc1 [CHET3-1]

whole-cell patch clamp, HEK-293T (TASK-3 (hTASK-3) [4]): while CHET3-2 was inactive (Fig. 4B)
Compound: Cc1ccc(SCc2cc(O)nc(N=C(N)Nc3ccc(C(C)(C)C)cc3)n2)cc1 [CHET3-2]

EC50 [5]: 2500 ± 200 nM | EC50 (TASK-3 (hTASK-3) [3]): 1400 ± 200 nM
Compound: Cc1ccc(SCc2cc(O)nc(N=C(N)Nc3ccc4c(c3)OCCO4)n2)cc1 [CHET3]

Source: paper doi:10.1101/657387v2 (biorxiv, 2019)
